Experiments:
Progesterone Receptor = target: T1, Progesterone Receptor (Homo sapiens, UniProt P06401); experiment: Progesterone receptor binding, relative binding affinity (RBA); conditions: RBA relative to progesterone = 100
T1 sequence (P06401 1-933): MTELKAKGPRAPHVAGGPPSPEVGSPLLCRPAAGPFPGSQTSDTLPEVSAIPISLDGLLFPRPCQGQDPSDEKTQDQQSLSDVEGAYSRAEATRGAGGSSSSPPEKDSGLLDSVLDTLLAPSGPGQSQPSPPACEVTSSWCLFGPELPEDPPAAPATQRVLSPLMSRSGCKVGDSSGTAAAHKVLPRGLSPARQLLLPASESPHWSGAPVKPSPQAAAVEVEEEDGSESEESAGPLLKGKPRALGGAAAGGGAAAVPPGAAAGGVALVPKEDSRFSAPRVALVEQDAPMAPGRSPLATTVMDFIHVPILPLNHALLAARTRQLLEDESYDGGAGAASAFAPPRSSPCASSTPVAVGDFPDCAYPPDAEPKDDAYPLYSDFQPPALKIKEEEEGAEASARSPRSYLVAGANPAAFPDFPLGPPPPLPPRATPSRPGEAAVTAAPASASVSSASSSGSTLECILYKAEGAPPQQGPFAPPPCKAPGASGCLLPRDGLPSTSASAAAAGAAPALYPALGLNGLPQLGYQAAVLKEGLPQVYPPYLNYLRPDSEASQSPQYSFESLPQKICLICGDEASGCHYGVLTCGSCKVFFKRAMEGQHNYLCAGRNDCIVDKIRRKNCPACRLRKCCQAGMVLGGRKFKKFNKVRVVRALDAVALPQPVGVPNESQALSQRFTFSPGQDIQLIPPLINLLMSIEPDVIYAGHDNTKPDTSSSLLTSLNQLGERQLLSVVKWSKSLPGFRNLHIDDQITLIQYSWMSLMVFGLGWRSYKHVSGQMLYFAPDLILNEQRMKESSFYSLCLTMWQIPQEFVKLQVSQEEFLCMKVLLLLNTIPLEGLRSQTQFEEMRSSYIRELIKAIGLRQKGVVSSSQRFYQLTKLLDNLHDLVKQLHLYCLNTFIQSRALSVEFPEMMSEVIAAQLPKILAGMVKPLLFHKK

Glucocorticoid Receptor = target: T2, Glucocorticoid Receptor (Homo sapiens, UniProt P04150); experiment: Glucocorticoid receptor binding, relative binding affinity (RBA); conditions: RBA relative to dexamethasone = 100
T2 sequence (P04150 1-777): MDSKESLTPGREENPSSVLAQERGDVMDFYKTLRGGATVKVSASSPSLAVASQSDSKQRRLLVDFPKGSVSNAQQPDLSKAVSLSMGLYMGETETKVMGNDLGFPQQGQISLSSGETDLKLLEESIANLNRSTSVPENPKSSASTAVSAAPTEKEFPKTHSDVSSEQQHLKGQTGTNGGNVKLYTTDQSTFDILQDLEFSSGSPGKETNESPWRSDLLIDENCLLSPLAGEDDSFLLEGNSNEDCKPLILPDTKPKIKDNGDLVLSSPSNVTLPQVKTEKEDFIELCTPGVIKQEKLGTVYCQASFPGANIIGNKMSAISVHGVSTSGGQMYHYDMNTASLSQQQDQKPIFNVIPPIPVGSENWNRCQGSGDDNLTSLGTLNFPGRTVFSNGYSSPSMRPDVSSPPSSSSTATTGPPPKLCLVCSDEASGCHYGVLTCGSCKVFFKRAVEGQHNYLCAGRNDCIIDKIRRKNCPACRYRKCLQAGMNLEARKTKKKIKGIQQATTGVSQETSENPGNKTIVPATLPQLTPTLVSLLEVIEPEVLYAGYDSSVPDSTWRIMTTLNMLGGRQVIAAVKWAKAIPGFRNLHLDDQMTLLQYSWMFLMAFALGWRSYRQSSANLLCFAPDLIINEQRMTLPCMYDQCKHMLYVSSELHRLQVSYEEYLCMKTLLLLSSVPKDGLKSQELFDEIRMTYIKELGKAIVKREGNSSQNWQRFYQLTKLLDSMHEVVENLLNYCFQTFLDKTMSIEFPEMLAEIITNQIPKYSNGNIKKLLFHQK

Structure (SMILES)	Relative Binding Affinity to Progesterone Receptor, % (Progesterone Receptor) [%]	Relative Binding Affinity to Glucocorticoid Receptor, % (Glucocorticoid Receptor) [%]
COc1cccc(C2CC3(C)C(CCC3(O)C#CC(C)(C)C)C3CCC4=CC(=O)CCC4=C23)c1 (stereo not drawn) [Example 1, 21-tert.Butyl-17-hydroxy-11β-(3-methoxyphenyl)-19-nor-17α-pregna-4,9-dien-20-yn-3-one]	3.4	85
COc1cccc(C2CC3(C)C(CCC3(O)C#Cc3cccc(C=O)c3)C3CCC4=CC(=O)CCC4=C23)c1 (stereo not drawn) [Example 3, 3-{17-Hydroxy-11β-[3-(methoxy)phenyl]-3-keto-19-nor-17α-pregna-4,9-dien-20-yn-21-yl}benzaldehyde]	4.3	159
COc1cccc(C2CC3(C)C(CCC3(O)C#Cc3ccc(OC(C)=O)cc3)C3CCC4=CC(=O)CCC4=C23)c1 (centres unmarked) [Example 4]	2.8	98
COc1cccc(C2CC3(C)C(CCC3(O)C#Cc3ccc(-n4cccc4)cc3)C3CCC4=CC(=O)CCC4=C23)c1 (centres unmarked) [Example 5]	3.4	57
COc1cccc(C2CC3(C)C(CCC3(O)C#Cc3ccc(O)cc3)C3CCC4=CC(=O)CCC4=C23)c1 (centres unmarked) [Example 6]	2.9	109
COc1cccc(C2CC3(C)C(CCC3(O)C#Cc3ccc(S(C)(=O)=O)cc3)C3CCC4=CC(=O)CCC4=C23)c1 (stereo not drawn) [Example 7, 17-Hydroxy-21-(4-mesylphenyl)-11,6-(3-methoxyphenyl)-19-nor-17α-pregna-4,9-dien-20-yn-3-one]	1.0	155
COc1cccc(C2CC3(C)C(CCC3(O)C#Cc3cccc(C=NO)c3)C3CCC4=CC(=O)CCC4=C23)c1 (stereo not drawn) [Example 10, 3-E-[17-Hydroxy-11β-[3-(methoxy)phenyl)-19-nor-3-keto-17α-pregna-4,9-dien-20-yn-21-yl]benzaldoxime]	10.4	148
